From patent US20250222146A1, “Radiopharmaceuticals Targeting Somatostatin Receptor 2 and Uses Thereof” (RayzeBio, Inc., priority 2023, published 2025)
Numbered stars: 1 amine (or outer) side, 2 acyl side, 3 side chain; on linkers, the order of the positions; unused ones are H or OH. Square brackets hold non-standard residues; d marks the D form. Side chains are listed from the residue outwards. Peptide text beside a SMILES is read from it. * marks the point of attachment. DOTA(Lu)NH(CH2)6NHCOCH2 = O=C(CN1CCN2CCN3CCN(CC1)CC(=O)[O][Lu]([O]C(=O)C2)[O]C(=O)C3)NCCCCCCNC(=O)C*; X24 = O=C1CN2CCN3CCN(CC(=O)N4CC(CC(=O)*)C4)CCN(CC2)CC(=O)[O][Lu]([O]1)[O]C(=O)C3; DOTA(Lu) = O=C1CN2CCN3CCN(CC(=O)*)CCN(CC2)CC(=O)[O][Lu]([O]1)[O]C(=O)C3; Ala(piperidin-4-yl) = O=C([C@H](CC1CCN([*:3])CC1)N[*:1])[*:2]; dTrp(βS-Me) = C[C@@H](c1c[nH]c2ccccc12)[C@@H](N)C(=O)O; dTrp(6-Cl) = N[C@H](Cc1c[nH]c2cc(Cl)ccc12)C(=O)O; X19 = O=C([C@H](Cc1c[nH]c2ccncc12)N[*:1])[*:2]; Tyr(Ph) = N[C@@H](Cc1ccc(Oc2ccccc2)cc1)C(=O)O; X4 = C[C@@H](c1ccccc1)[C@H](N[*:1])C(=O)[*:2]; Cha = N[C@@H](CC1CCCCC1)C(=O)O; NMehCys = CN[C@@H](CCS)C(=O)O; NMeK = CN[C@@H](CCCCN)C(=O)O; Ahx = NCCCCCC(=O)O; βAla = NCCC(=O)O

molecular target: SSTR2 (Homo sapiens, UniProt P30874); assay: SSTR binding affinity by radioligand binding competition assay ([125I]-Tyr11-Somatostatin, membrane extracts); details: SSTR2 Ki, radioligand competition, [125I]-Tyr11-Somatostatin 0.1 nM, membrane extracts; Ki from IC50 by Cheng Prusoff
Sequence (P30874 whole entry): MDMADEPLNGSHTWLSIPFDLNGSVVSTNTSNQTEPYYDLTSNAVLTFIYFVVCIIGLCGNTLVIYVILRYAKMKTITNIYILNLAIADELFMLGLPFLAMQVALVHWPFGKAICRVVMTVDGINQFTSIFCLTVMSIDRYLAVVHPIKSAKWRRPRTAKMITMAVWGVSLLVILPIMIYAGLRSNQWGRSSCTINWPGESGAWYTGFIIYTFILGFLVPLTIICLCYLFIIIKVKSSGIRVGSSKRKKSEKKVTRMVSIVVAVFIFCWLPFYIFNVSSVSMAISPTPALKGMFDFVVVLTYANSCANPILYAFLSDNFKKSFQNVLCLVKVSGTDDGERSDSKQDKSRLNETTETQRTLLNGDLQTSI
Method: Macrocyclic peptides in this invention were tested for binding to SSTR protein by a radioligand binding competition assay. For radioligand binding assay, competition binding is performed in duplicate in the wells of a 96 well plate containing binding buffer (HEPES 25 mM pH 7.4, MgCl2 5 mM, CaCl2 1 mM, BSA 0.5%, Saponine 10 μg/ml)), membrane extracts (0.6 μg protein/well), radiotracer ([125I]-Tyr11-Somatostatin, Perkin Elmer NEX389) and test compound. Nonspecific binding is determined by co-incubation with 200-fold excess of cold competitor (SST28). The samples are incubated in a final volume of 0.1 ml for 60 min at room temperature and then filtered over UniFilter-96 GF/C (Revvity 6055690) filter plates. Filters are washed six times with 0.5 ml of ice-cold washing buffer (HEPES 25 mM pH 7.4, MgCl2 5 mM, CaCl2 1 mM) and 50 μl of Microscint 20 (Packard) are added in each well. The plates are incubated 15 min on an orbital shaker and then counted with a TopCount™ for 1 min/well. For IC50 to Ki determination, the Cheng Prusoff equation is used: Ki=IC50/(1+ [tracer]/Kd). [Tracer] is 0.1 nM as mentioned above.

| Compound | Ki [nM] |
| --- | --- |
| CC(C)[C@@H]1NC(=O)[C@H](CCCCN)NC(=O)[C@@H](Cc2c[nH]c3ccccc23)NC(=O)[C@H](Cc2ccc(O)cc2)NC(=O)[C@H](CCCCNC(=O)CCCCCNC(=O)CN2CCN3CCN4CCN(CC2)CC(=O)[O][Lu]([O]C(=O)C3)[O]C(=O)C4)N(C)C(=O)[C@H](Cc2ccccc2)NC1=O [RB-0002670] (cyclo(F[NMeK]([Ahx-DOTA(Lu)])Y[dW]KV)) | < 1 |

same assay, conditions: radioligand competition, [125I]-Tyr11-Somatostatin 0.1 nM, membrane extracts; Ki from IC50 by Cheng Prusoff; read-out: SSTR2 Ki

| Compound | Ki [nM] |
| --- | --- |
| C[C@@H](O)[C@@H]1NC(=O)[C@H](CC2CCNCC2)NC(=O)[C@@H]([C@@H](C)c2c[nH]c3ccccc23)NC(=O)[C@H](Cc2ccc(O)cc2)NC(=O)[C@H](CCCCNC(=O)CN2CCN3CCN4CCN(CC2)CC(=O)[O][Lu]([O]C(=O)C3)[O]C(=O)C4)N(C)C(=O)[C@H](CC2CCCCC2)NC1=O [RB-0006162] (cyclo([Cha][NMeK](DOTA(Lu))Y[dTrp(βS-Me)][Ala(piperidin-4-yl)]T)) | 1 to 3.33 |
| C[C@@H](O)[C@@H]1NC(=O)[C@H](CC2CCNCC2)NC(=O)[C@@H]([C@@H](C)c2c[nH]c3ccccc23)NC(=O)[C@H](Cc2ccc(O)cc2)NC(=O)[C@H](CCCCNC(=O)CCNC(=O)CN2CCN3CCN4CCN(CC2)CC(=O)[O][Lu]([O]C(=O)C3)[O]C(=O)C4)N(C)C(=O)[C@H](Cc2ccccc2)NC1=O [RB-0006400] (cyclo(F[NMeK]([βAla-DOTA(Lu)])Y[dTrp(βS-Me)][Ala(piperidin-4-yl)]T)) | 1 to 3.33 |
| C[C@@H](O)[C@@H]1NC(=O)[C@H](CC2CCNCC2)NC(=O)[C@@H](Cc2c[nH]c3ccccc23)NC(=O)[C@H](Cc2ccc(O)cc2)NC(=O)[C@H](CCSCC(=O)NCCCCCCNC(=O)CN2CCN3CCN4CCN(CC2)CC(=O)[O][Lu]([O]C(=O)C3)[O]C(=O)C4)N(C)C(=O)[C@H](Cc2ccccc2)NC1=O [RB-0004864] (cyclo(F[NMehCys](DOTA(Lu)NH(CH2)6NHCOCH2)Y[dW][Ala(piperidin-4-yl)]T)) | 1 to 3.33 |
| C[C@@H](O)[C@@H]1NC(=O)[C@H](CCCCN)NC(=O)[C@@H](Cc2c[nH]c3ccccc23)NC(=O)[C@H](Cc2ccc(O)cc2)NC(=O)[C@H](CCSCC(=O)NCCCCCCNC(=O)CN2CCN3CCN4CCN(CC2)CC(=O)[O][Lu]([O]C(=O)C3)[O]C(=O)C4)N(C)C(=O)[C@H]([C@@H](C)c2ccccc2)NC1=O [RB-0003278] (cyclo(KT[X4][NMehCys](DOTA(Lu)NH(CH2)6NHCOCH2)Y[dW])) | 1 to 3.33 |
| C[C@@H](O)[C@@H]1NC(=O)[C@H](CCCCN)NC(=O)[C@H](Cc2c[nH]c3ccncc23)NC(=O)[C@H](Cc2ccc(O)cc2)NC(=O)[C@H](CCSCC(=O)NCCCCCCNC(=O)CN2CCN3CCN4CCN(CC2)CC(=O)[O][Lu]([O]C(=O)C3)[O]C(=O)C4)N(C)C(=O)[C@H](Cc2ccccc2)NC1=O [RB-0005903] (cyclo(F[NMehCys](DOTA(Lu)NH(CH2)6NHCOCH2)Y[X19]KT)) | < 1 |
| C[C@@H](O)[C@@H]1NC(=O)[C@H](CC2CCNCC2)NC(=O)[C@@H]([C@@H](C)c2c[nH]c3ccccc23)NC(=O)[C@H](Cc2ccc(Oc3ccccc3)cc2)NC(=O)[C@H](CCCCNC(=O)CN2CCN3CCN4CCN(CC2)CC(=O)[O][Lu]([O]C(=O)C3)[O]C(=O)C4)N(C)C(=O)[C@H](Cc2ccccc2)NC1=O [RB-0006237] (cyclo(F[NMeK](DOTA(Lu))[Tyr(Ph)][dTrp(βS-Me)][Ala(piperidin-4-yl)]T)) | 3.33 to 10 |
| C[C@@H](O)[C@@H]1NC(=O)[C@H](CCCCN)NC(=O)[C@@H](Cc2c[nH]c3ccccc23)NC(=O)[C@H](Cc2ccc(O)cc2)NC(=O)[C@H](CCSCC(=O)NCCOCCOCCOCCNC(=O)CN2CCN3CCN4CCN(CC2)CC(=O)[O][Lu]([O]C(=O)C3)[O]C(=O)C4)N(C)C(=O)[C@H](Cc2ccccc2)NC1=O [RB-0005284] | < 1 |
| C[C@@H](O)[C@@H]1NC(=O)[C@H](CC2CCNCC2)NC(=O)[C@@H](Cc2c[nH]c3cc(Cl)ccc23)NC(=O)[C@H](Cc2ccc(O)cc2)NC(=O)[C@H](CCSCC(=O)NCCCCCCNC(=O)CN2CCN3CCN4CCN(CC2)CC(=O)[O][Lu]([O]C(=O)C3)[O]C(=O)C4)N(C)C(=O)[C@H](Cc2ccccc2)NC1=O [RB-0006189] (cyclo(F[NMehCys](DOTA(Lu)NH(CH2)6NHCOCH2)Y[dTrp(6-Cl)][Ala(piperidin-4-yl)]T)) | 1 to 3.33 |
| C[C@@H](O)[C@@H]1NC(=O)[C@H](CC2CCNCC2)NC(=O)[C@@H]([C@@H](C)c2c[nH]c3ccccc23)NC(=O)[C@H](Cc2ccc(O)cc2)NC(=O)[C@H](CCCCNC(=O)CC2CN(C(=O)CN3CCN4CCN5CCN(CC3)CC(=O)[O][Lu]([O]C(=O)C5)[O]C(=O)C4)C2)N(C)C(=O)[C@H](Cc2ccccc2)NC1=O [RB-0006461] (cyclo(F[NMeK](X24)Y[dTrp(βS-Me)][Ala(piperidin-4-yl)]T)) | 3.33 to 10 |
